Patent US12419897B2 (President and Fellows of Harvard College, priority 2018, dated 2025)
“Also recorded” adds a separate entry of the source.

What was measured:
[1] = Stability after incubation in buffer at physiological pHs (UPLC-MS); type: physicochemical; conditions: 37° C. in buffer at physiological pHs
NCI-H716 cells [2] = assay: Intracellular calcium levels in NCI-H716 cells (L-cells); type: cell-based, human; conditions: NCI-H716 cells (L-cells) in vitro
human TGR5 = target: T1, human TGR5 (Homo sapiens, UniProt Q8TDU6); assay: Luciferase reporter assay for human TGR5 activation in HEK293T cells overexpressing human TGR5; type: cell-based; conditions: for TGR5 activation: HEK293T cells overexpressing human TGR5, luminescence readout; for EC50: HEK293T cells overexpressing human TGR5
T1 construct: expressed in transfected cells; host or cells: HEK293T
T1 sequence (Q8TDU6 1-330): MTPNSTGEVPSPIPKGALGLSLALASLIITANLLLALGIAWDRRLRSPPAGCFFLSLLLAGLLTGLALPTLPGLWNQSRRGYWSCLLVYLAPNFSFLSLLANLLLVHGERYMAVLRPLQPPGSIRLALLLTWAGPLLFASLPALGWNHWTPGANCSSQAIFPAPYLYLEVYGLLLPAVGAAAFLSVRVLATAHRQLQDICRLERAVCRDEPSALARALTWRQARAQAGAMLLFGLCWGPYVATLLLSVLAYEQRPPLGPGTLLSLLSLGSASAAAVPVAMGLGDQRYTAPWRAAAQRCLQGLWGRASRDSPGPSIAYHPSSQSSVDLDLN
Experimental: Human TGR5 was overexpressed in HEK93T cells along with a luciferase-based TGR5 reporter plasmid. Cells were then incubated with different concentrations of compounds overnight, and TGR5 activation was measured as a luminescence readout.
Plasmids and transient transfections. Human TGR5 was cloned using cDNA from human Caco-2 cells as template and a forward primer with an EcoRIrestriction-site (5′-[…]-3′) and a reverse primer with a XhoI-site (5′-[…]-3′). The PCR product was cloned into the pCDNA 3.1+plasmid (Promega Corporation, Madison, Wis.) and transfected at a concentration of 0.4 μg/ml of media. For luciferase reporter assays for TGR5 activation, the pGL4.29[luc2P/CRE/Hygro] plasmid (Promega Corporation), and the pGL4.74[hRluc/CMV] plasmid (Promega Corporation) were used at concentration of 2 μg/ml and 0.05 μg/ml of media respectively. All plasmids were transfected using Opti-MEM (Gibco) and Lipofectamine 2000 (Invitrogen, Life Technologies, Grand Island, N.Y., USA) according to manufacturer's instructions. Plasmid transfection were performed in antibiotic-free media (MEM for HEK293T and RPMI for Matrigel-attached NCI-H716 cells) with 10% FBS. After overnight incubation, compounds were added in complete media and incubated overnight. Cells were harvested the next day for luciferase assay.
Luciferase reporter assay. Luminescence was measured using the Dual-Luciferase Reporter Assay System (Promega Corporation) according to manufacturer's instructions. Cells were washed gently with PBS and lysed in PLB from the kit. Matrigel-attached cells were scraped in PLB. Luminescence was measured using the SpectraMax M5 plate reader (Molecular Devices, San Jose, Calif.) at the ICCB-Longwood Screening Facility at Harvard Medical School. Luminescence was normalized to Renilla luciferase activity and percentage relative luminescence was calculated compared to DMSO control.

NCI-H716 cells [3] = assay: GLP-1 synthesis and secretion in NCI-H716 cells; type: cell-based, human; conditions: for GLP-1 secretion by CA7S extracted from cecal contents of SG mice: 500 μM; for GLP-1 secretion by CA7S extracted from cecal contents of SG mice / total GLP-1 (GLP-1 synthesis): vs DMSO control; for GLP-1 secretion: in vitro; for total GLP-1 (GLP-1 synthesis): media + cell lysates
Experimental: GLP-1 synthesis and secretion were measured in matrigel-polarized NCI-H716 cells. […] (FIG. 28B)
Treatment with compounds. […] The cells were allowed to grow for 2 days in complete RPMI media. […] The concentration of DMSO was kept constant throughout the treatments and used as a negative control. Cells were incubated at 37° C. in an atmosphere of 5% CO2 for 2 hours. After the incubation period, cell culture media was collected in Eppendorf tubes containing 1% trifluoroacetic acid (TFA, Sigma) in sterile purified water (GenClone) to make a final TFA concentration of 0.1% and frozen at −80° C. for further GLP-1 measurements. Cells on cell culture plates were placed on ice and gently washed with PBS (GenClone). Cells used for GLP-1 measurements were treated with ice-cold cell lysis solution of 1% TFA, 1N hydrochloric acid, 5% formic acid, and 1% NaCl (all from Sigma), scraped off of the Matrigel coating, and collected in 96-well plates for peptide purification. Lysates were stored at −80° C. for further analysis.
GLP-1 measurement. Total GLP-1 peptide measurements were performed using the GLP-1 EIA Kit (Sigma, Cat. No. RAB0201) according to manufacturer's instructions. Cell culture media and cell lysates were subjected to peptide purification using Sep Pak C18 Classic columns (Waters Corporation, Milford, Mass.). The column was pretreated with a solution of 0.1% TFA in 80% isopropyl alcohol (EMD Millipore) and equilibrated with 0.1% TFA in water. Cell culture media and cell lysates were loaded onto the column and washed with […]. The peptides were eluted in […]. The eluate was concentrated by drying under vacuum and resuspended in 0.1% TFA in water. 0.1% TFA in water was used as ‘blank’ for cell culture media and purified cell lysate ELISAs. Excess samples were stored at −80° C. for later analyses. Total GLP-1 amounts in the cell culture media (secreted) and cell lysates were calculated using a standard curve provided in the EIA kit.

Caco-2 cells = assay: Caco-2 cell viability assay (CellTiter-Glo, ATP luminescence); type: cell-based; conditions: concentrations up to 3 mM
Experimental: Compounds were also tested for toxicity using Caco-2 cells, a human intestinal epithelial cancer cell line. Caco-2 cells were incubated with compounds for 16 hours and cell death was determined using a luminescence assay measuring ATP levels as a readout for cell viability.
Cell viability assay. Caco-2 cells were treated with compounds diluted in DMSO in complete MEM media. The concentration of DMSO was kept constant and used as a negative control. Cells were incubated with compounds overnight at 37° C. in an atmosphere of 5% CO2. The next day, cell viability was measured using CellTiter-Glo Luminescent Cell Viability Assay from Promega Corporation according to manufacturer's instructions. Luminescence was measured using the SpectraMax M5 plate reader (Molecular Devices, San Jose, Calif.) at the ICCB-Longwood Screening Facility at Harvard Medical School. Luminescence was normalized to DMSO control and percentage relative luminescence was calculated compared to DMSO control.

DIO mice = assay: Acute treatment of DIO mice via duodenal and rectal catheters: GLP-1 and blood glucose; type: in vivo, mouse; conditions: HFD-fed (DIO) mice, 1 mg, vs PBS; for systemic GLP-1 levels in vivo: within 15 minutes
Experimental: Next, the ability of CA7S to stimulate GLP-1 secretion and improve hyperglycemia in vivo was evaluated. DIO mice were treated with either CA7S or PBS via duodenal and rectal catheters (FIG. 17A).

[4] = listed as Cholic acid 7-sulfate
[5] = HFD-fed mice, acute cholic acid 7-sulfate treatment
[6] = listed as cholic acid 7-sulfate

C[C@H](CCC(=O)O)[C@H]1CC[C@H]2[C@@H]3[C@H](OS(=O)(=O)O)C[C@@H]4C[C@H](O)CC[C@]4(C)[C@H]3C[C@H](O)[C@]12C [CA7S, cholic acid 7-sulfate]
pH stability [1]: stable at physiological pHs | pH stability [1, 4]: stable in a wide range of pHs | intracellular calcium levels (NCI-H716 cells [2]): dose-dependent increase in calcium levels | intracellular calcium levels (NCI-H716 cells [2]; [4]): increased calcium levels | TGR5 activation (human TGR5): activated human TGR5 in a dose-dependent manner | TGR5 activation (human TGR5; [4]): induces TGR5 activation | Cholic acid 7-sulfate concentration (mean ± SEM), Cecum [5]: 2577 ± 185.3 pmol/mg | Cholic acid 7-sulfate concentration (mean ± SEM), Hepatic portal vein [5]: 6.128 ± 2.111 pmol/mg | CA7S in cecal contents, on average (administration of 1 mg, duodenal and rectal catheters): 2500 pmol/mg wet mass | cholic acid 7-sulfate in the cecum (dosing with 1 mg): ~2500 µM | amounts in systemic circulation and portal vein (gut restriction) (ectopic introduction in mice, listed as cholic acid 7-sulfate): only minor amounts | GLP-1 secretion by CA7S extracted from cecal contents of SG mice (NCI-H716 cells [3]): also induced GLP-1 secretion in vitro | GLP-1 secretion by CA7S extracted from cecal contents of SG mice (NCI-H716 cells [3]; [6]): exhibit activity inducing GLP-1 secretion | GLP-1 secretion after siRNA-mediated knockdown of TGR5 (NCI-H716 cells [3]): abolished | GLP-1 secretion after siRNA-mediated knockdown of TGR5 (NCI-H716 cells [3]; [6]): abolished GLP-1 secretion | GLP-1 secretion (NCI-H716 cells [3]): induced GLP-1 secretion to a similar degree as TDCA in a dose-dependent manner | GLP-1 secretion (NCI-H716 cells [3]; [4]): induces GLP-1 secretion in vitro better than the known GLP-1 inducer TDCA | viability of Caco-2 cells (Caco-2 cells): does not affect the viability | viability of Caco-2 cells (Caco-2 cells; [4]): no toxicity | blood glucose levels in vivo (DIO mice; within 15 min): reduced blood glucose levels | systemic GLP-1 levels in vivo (DIO mice): increased systemic GLP-1 levels | systemic GLP-1 levels in vivo (DIO mice; [6]): induced GLP-1 levels

C[C@H](CCC(=O)O)[C@H]1CC[C@H]2[C@@H]3[C@H](O)C[C@@H]4C[C@H](O)CC[C@]4(C)[C@H]3C[C@H](O)[C@]12C [CA, cholic acid]
GLP-1 secretion (NCI-H716 cells [3]): had no effect on GLP-1 secretion | GLP-1 secretion (NCI-H716 cells [3]; listed as cholic acid): had no effect

C[C@H](CCC(=O)O)[C@H]1CC[C@H]2[C@@H]3[C@H](NS(=O)(=O)O)C[C@@H]4C[C@H](O)CC[C@]4(C)[C@H]3C[C@H](O)[C@]12C [Compound 1]
EC50 (human TGR5): 2.4 µM | TGR5 activation (human TGR5): induced TGR5 activation in a dose-dependent manner; also recorded: activate TGR5 | GLP-1 secretion (NCI-H716 cells [3]): induce GLP-1 synthesis and secretion | total GLP-1 (GLP-1 synthesis) (NCI-H716 cells [3]): increased total GLP-1; also recorded: induce GLP-1 synthesis and secretion

C[C@H](CCC(=O)O)[C@H]1CC[C@H]2[C@@H]3[C@H](NS(=O)(=O)O)C[C@@H]4C[C@H](O)CC[C@]4(C)[C@H]3CC[C@]12C [Compound 2]
EC50 (human TGR5): 1.7 µM | TGR5 activation (human TGR5): induced TGR5 activation in a dose-dependent manner; also recorded: activate TGR5 | GLP-1 secretion (NCI-H716 cells [3]): induced GLP-1 secretion; also recorded: induce GLP-1 synthesis and secretion | total GLP-1 (GLP-1 synthesis) (NCI-H716 cells [3]): increased total GLP-1; also recorded: induce GLP-1 synthesis and secretion

C[C@H](CCC(=O)O)[C@H]1CC[C@H]2[C@@H]3[C@H](NS(=O)(=O)O)[C@H](O)[C@@H]4C[C@H](O)CC[C@]4(C)[C@H]3CC[C@]12C [Compound 3]
TGR5 activation (human TGR5): induced TGR5 activation in a dose-dependent manner; also recorded: activate TGR5 | GLP-1 secretion (NCI-H716 cells [3]): induced GLP-1 secretion; also recorded: induce GLP-1 synthesis and secretion | total GLP-1 (GLP-1 synthesis) (NCI-H716 cells [3]): increased total GLP-1; also recorded: induce GLP-1 synthesis and secretion

C[C@H](CCC(=O)O)[C@H]1CCC2[C@H]3C(CC[C@@]21C)[C@@]1(C)CC[C@@H](O)C[C@H]1C[C@H]3S(=O)(=O)O (stereo partly drawn) [Compound 6, (4R)-4-((3R,5S,7R,8R,10S,13R,17R)-3-hydroxy-10,13-dimethyl-7-sulfohexadecahydro-1H-cyclopenta[a]phenanthren-17-yl)pentanoic acid]
TGR5 activation (human TGR5): induced TGR5 activation in a dose-dependent manner; also recorded: activated TGR5 | GLP-1 secretion (NCI-H716 cells [3]): induced an increase in GLP-1 synthesis and secretion | total GLP-1 (GLP-1 synthesis) (NCI-H716 cells [3]): increased total GLP-1; also recorded: induced an increase in GLP-1 synthesis and secretion

C[C@H](CCC(=O)NCCS(=O)(=O)O)[C@H]1CC[C@H]2[C@@H]3CC[C@@H]4C[C@H](O)CC[C@]4(C)[C@H]3C[C@H](O)[C@]12C [TDCA, tauro-deoxycholic acid]
GLP-1 secretion after siRNA-mediated knockdown of TGR5 (NCI-H716 cells [3]): abolished
